Experimental data as given in publication PMC6396940, “EhFP10: A FYVE family GEF interacts with myosin IB to regulate cytoskeletal dynamics during endocytosis in Entamoeba histolytica” (PLoS Pathogens, 2019).
Ends that are not written are not given here.

Experiments:
[1] = biological target: EhMySH3 (SH3 domain of EhMyosin IB) (Entamoeba histolytica, UniProt C4LUC7); assay: SPR binding of peptides to immobilized EhMySH3 (Autolab SPR); conditions: for Kd: SPR kinetic analysis, peptide passed over immobilized EhMySH3, 10 mM HEPES, 150 mM NaCl, 3 mM EDTA, 0.05% NP-40, pH 7.4, 25°C, text: values could not be calculated accurately (peptides about 1000 Da), read-out: Binding affinity (KD, equilibrium dissociation constant); for relative SPR binding response: 0.8 mM of each peptide passed over immobilized EhMySH3, compared with the other peptides
Procedure: For binding studies of EhMySH3 with peptides, an Autolab SPR apparatus was used at the Advanced Instrumentation Research Facility, Jawaharlal Nehru University, New Delhi, India. Here, the 11-mercaptoundecanoic acid (11MUA) monolayer on the surface of the gold chip (Autolab) was activated by N-hydroxysuccinimide (NHS; 0.05 M)/[…] (EDC; 0.2 M). EhMySH3 protein (ligand) at a concentration of 37 μM was immobilized in channel 1 on the activated surface of the gold chip in 10 mM sodium acetate buffer (pH 5.0) up to 700 RU. During experimentation, channel 1 was used to pass the analytes (peptides) while channel 2 was used as a blank (the signals of the analyte with a ligand-free surface). After ligand immobilization, the surface was blocked with 100 mM ethanolamine at pH 8.5, followed by regeneration using 50 mM NaOH. The different peptides, each at various concentrations, were each injected at a rate of 20 μl/min across the sensor chip surface and the association kinetics and dissociation kinetics were monitored for 200 s and 100 s, respectively. All of the dilutions were done in running buffer, i.e., 10 mM HEPES, 150 mM NaCl, 3 mM EDTA, 0.05% NP-40 surfactant [pH 7.4].
All of the data were recorded at 25°C. For the evaluation of the kinetics, differential sensorgrams were analyzed using Autolab SPR Kinetic Evaluation software.

[2] = biological target: filamentous rabbit muscle actin (F-actin) (rabbit) (UniProt P68135)
[3] = biological target: c-terminal SH3 domain of EhMyosin IB (EhMySH3) (Entamoeba histolytica); assay: SPR; Autolab SPR; EhMySH3 immobilised (1.175 ng/mm^3), cterEhFP10 at various concentrations passed over; association 400 s, dissociation 150 s; 25 C
[4] = biological target: filamentous rabbit muscle actin (F-actin) (rabbit) (UniProt P68135); assay: SPR; Autolab SPR; F-actin immobilised (0.67 ng/mm^3; 50 mM sodium acetate pH 4.1, 0.05 mM CaCl2, 0.05 mM ATP, 0.125 mM DTT), cterEhFP10 at various concentrations passed over; 25 C
[5] = biological target: c-terminal SH3 domain of EhMyosin IB (EhMySH3) (Entamoeba histolytica); assay: SPR; Autolab SPR; EhMySH3 immobilised on an 11-MUA gold chip (NHS/EDC, up to 700 RU), peptides injected at 20 ul/min; 10 mM HEPES, 150 mM NaCl, 3 mM EDTA, 0.05% NP-40, pH 7.4; 25 C

NIVPIQPPQ [P3] gave a Kd [1] of 1000 µM.

“c-terminal domain of EhFP10 (cterEhFP10) (domain or fragment)” gave a thickness of actin bundles by TEM, filaments of 4 nm to 7 nm without and bundles with 10 uM to 20 uM cterEhFP10 [2] of 120 nm, a Kd [3] of 0.2 µM and a Kd [4] of 0.087 µM.

In the case of SLPPKPLR [P1], the Kd [1] is reported as 400 µM.

“KVAPPIPHR [P2, pseudo-symmetrical class I + II peptide … from EhFP10, co-crystallized with EhMySH3]” was tested, and the “relative SPR binding response” value [1] was “highest binding response”.

With QHCPNVPII [P5] the Kd [1] was 700 µM.

With “RPQPPTP [P4, class I peptide RPQPPTP from EhFP10]” the “relative SPR binding response” value [1] was “weakest binding”.

B1: peptide P3 from Rho family GTPase (peptide)
peptide: NIVPIQPPQ
modifications: not fully specified
Molecule B1 has a Kd [5] of 1000 µM.

B2: peptide P5 from Rho family GTPase (peptide)
peptide: QHCPNVPII
modifications: not fully specified
Work on B2 yielded a Kd [5] of 700 µM.
